How the values were obtained:
Type in all cases: in vivo
Ambrosia artemisiifolia = assay: Field test in sunflowers, control of Ambrosia artemisiifolia (Example 2); conditions: sunflower field, spraying, clomazone 90 g/ha, pethoxamid 1200 g/ha, combination 90+1200 g/ha, 50 days after application
Source text: (§1) In the Colby method, also referred to as the Limpels method, the action to be expected E for a given active ingredient combination obeys the so-called Colby formula. According to Colby, the expected action of active ingredients A+B using p+q ppm of active ingredient is:
(§2) [formula] where ppm=milligrams of active ingredient (=a.i.) per liter of spray mixture X=% action by component A using p ppm of active ingredient Y=% action by component B using q ppm of active ingredient. If the ratio R defined as the action actually observed (O) divided by the expected action (E) is >1 then the action of the combination is superadditive, i.e. there is a synergistic effect. […]
(§3) The herbicidal compounds A and B were applied in the formulation in which they are present as commercially available product. Damage by the herbicidal compositions was evaluated with reference to a scale of 0% to 100% in comparison with untreated control plots. […]
(§4) In a field of sunflowers, clomazone (rate of 90 g/ha) and pethoxamid (rate of 1200 g/ha) were applied individually and in combination (90+1200 g/ha) to different plots by spraying. 50 days after application the rate of control of various weeds was recorded. The expected control is calculated according to the Colby method.

Solanum nigrum = assay: Field test in sunflowers, control of Solanum nigrum (Example 1); conditions: sunflower field, spraying, clomazone 90 g/ha, pethoxamid 1200 g/ha, combination 90+1200 g/ha, 55 days after application
Source text: as §1, §2, §3
(§5) In a field of sunflowers, clomazone (rate of 90 g/ha) and pethoxamid (rate of 1200 g/ha) were applied individually and in combination (90+1200 g/ha) to different plots by spraying. 55 days after application the rate of control of various weeds was recorded. The expected control is calculated according to the Colby method.

Viola arvensis = assay: Oilseed rape field test, control of Viola arvensis (Example 3); conditions: spraying, clomazone 72, pethoxamid 1200, combination 72 + 1200 g AI/hectare, 206 days after application
Source text: as §1, §2, §3
In an oilseed rape field, Clomazone, and pethoxamid were applied individually and in combination to different plots by spraying. 206 days after application the rate of control of Viola arvensis was recorded. The expected control is calculated according to the Colby method.

Galium aparine = assay: Oilseed rape field test, control of Galium aparine (Example 4); conditions: spraying, clomazone 72, pethoxamid 1200, combination 72 + 1200 g AI/hectare, 64 days after application
Source text: as §1, §2, §3
In an oilseed rape field, Clomazone, and pethoxamid were applied individually and in combination to different plots by spraying. 64 days after application the rate of control of Galium aparine was recorded. The expected control is calculated according to the Colby method.

Mercurialis annua = assay: Field test in sunflowers, control of Mercurialis annua (Example 2); conditions: sunflower field, spraying, clomazone 90 g/ha, pethoxamid 1200 g/ha, combination 90+1200 g/ha, 50 days after application
Source text: as §1, §2, §3, §4

Echinochloa crus-galli = assay: Field test in sunflowers, control of Echinochloa crus-galli (Example 1); conditions: sunflower field, spraying, clomazone 90 g/ha, pethoxamid 1200 g/ha, combination 90+1200 g/ha, 55 days after application, 0 = no damage, 100 = complete destruction
Source text: as §1, §2, §3, §5

Row | SMILES | Control observed (O) % (Ambrosia artemisiifolia) [%] | Control observed (O) % (Solanum nigrum) [%] | Control observed (O) % (Viola arvensis) [%] | Control observed (O) % (Galium aparine) [%] | Control observed (O) % (Mercurialis annua) [%] | Control observed (O) % (Echinochloa crus-galli) [%]
1 | CC1(C)CON(Cc2ccccc2Cl)C1=O [Clomazone, clomazone] | 10 | 37 | 0 | 40 | 13 | 50
2 | CCOCCN(C(=O)CCl)C(=C(C)C)c1ccccc1 [Pethoxamid, pethoxamid] | 10 | 47 | 50 | 0 | 27 | 47

Source: patent publication US9049866B2, “Synergistic herbicidal combination of clomazone and pethoxamid” (CHEMINOVA A/S, priority 2008, dated 2015)
